# Assay results: ChEMBL document CHEMBL1201862, “PubChem BioAssay data set” (2004)
#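 Exposure lasted 48 hours, with cells grown in 96-well plates and compounds tested at five concentrations. GI50 = concentration required for 50% inhibition of growth.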 Activity calls are given as the source filed them. Rule as the data show it: active = GI50 up to about 1.1 µM and inactive = higher.
# Legend:
# Test in all cases: DTP human tumour cell line panel, 48 h
# COLO 205 = test system: COLO 205
# SNB-19 = test system: SNB-19
# HOP-62 = test system: HOP-62
# KM-20L2 = test system: KM-20L2
# MOLT-4 = test system: MOLT-4
# DMS-273 = test system: DMS-273
# KM12 = test system: KM12
# OVCAR-4 = test system: OVCAR-4
# HOP-92 = test system: HOP-92
# SF-295 = test system: SF-295
# M14 = test system: M14
# SK-MEL-28 = test system: SK-MEL-28
# SN12C = test system: SN12C
# RXF 393 = test system: RXF 393
# U-251 = test system: U-251
# NCI-H522 = test system: NCI-H522
SMILES,GI50 (COLO 205),GI50 (SNB-19),GI50 (HOP-62),GI50 (KM-20L2),GI50 (MOLT-4),GI50 (DMS-273),GI50 (KM12),GI50 (OVCAR-4),GI50 (HOP-92),GI50 (SF-295),GI50 (M14),GI50 (SK-MEL-28),GI50 (SN12C),GI50 (RXF 393),GI50 (U-251),GI50 (NCI-H522)
COc1cc2c(cc1O)[C@@]1(Cc3ccc(OC)c(OC)c3)CCC(=O)N1CC2,> 100 µM (inactive),> 100 µM (inactive),> 100 µM (inactive),> 100 µM (inactive),52 µM (inactive),> 100 µM (inactive),> 100 µM (inactive),> 100 µM (inactive),39.8 µM (inactive),> 100 µM (inactive),> 100 µM (inactive),> 100 µM (inactive),> 100 µM (inactive),> 100 µM (inactive),–,–
NC(=O)CC(N/C=C1/N=C(c2ccccc2)OC1=O)C(=O)O (stereo not given),> 100 µM (inactive),> 100 µM (inactive),> 100 µM (inactive),> 100 µM (inactive),–,> 100 µM (inactive),> 100 µM (inactive),> 100 µM (inactive),> 100 µM (inactive),> 100 µM (inactive),> 100 µM (inactive),> 100 µM (inactive),–,> 100 µM (inactive),> 100 µM (inactive),> 100 µM (inactive)
CC(=O)OC(CCC1(C)OC1COc1ccc(CCNC(=O)c2ccccc2)cc1)C(C)(C)OC(C)=O (stereo not given),19.5 µM (inactive),–,15.5 µM (inactive),30.1 µM (inactive),4.19 µM (inactive),11 µM (inactive),15.6 µM (inactive),19.7 µM (inactive),74.6 µM (inactive),11.4 µM (inactive),15.1 µM (inactive),22 µM (inactive),> 100 µM (inactive),16.2 µM (inactive),37.3 µM (inactive),22.9 µM (inactive)
Cc1cc(C)c(C2[C@H]3C(=O)N(c4ccc(Cc5ccc(N6C(=O)[C@@H]7ON(c8ccccc8)C(c8c(C)cc(C)cc8C)[C@@H]7C6=O)cc5)cc4)C(=O)[C@H]3ON2c2ccccc2)c(C)c1 (stereo not given in full),> 100 µM (inactive),> 100 µM (inactive),> 100 µM (inactive),> 100 µM (inactive),> 100 µM (inactive),> 100 µM (inactive),> 100 µM (inactive),> 100 µM (inactive),–,> 100 µM (inactive),> 100 µM (inactive),> 100 µM (inactive),> 100 µM (inactive),44.1 µM (inactive),> 100 µM (inactive),> 100 µM (inactive)
CN1C(=O)C(=O)c2cc3c(c4c2c1cc1ccccc14)OCO3 [CEPHARADIONE A],28.7 µM (inactive),47.4 µM (inactive),41.2 µM (inactive),39.4 µM (inactive),17.9 µM (inactive),22.9 µM (inactive),18.3 µM (inactive),58.6 µM (inactive),> 100 µM (inactive),38.7 µM (inactive),26.7 µM (inactive),40.5 µM (inactive),37.7 µM (inactive),25.6 µM (inactive),43.4 µM (inactive),22.6 µM (inactive)
CC1CCN(CCC(=O)CC(c2ccccc2)c2c(O)c3ccccc3oc2=O)CC1 (stereo not given),> 100 µM (inactive),> 100 µM (inactive),> 100 µM (inactive),> 100 µM (inactive),> 100 µM (inactive),> 100 µM (inactive),> 100 µM (inactive),> 100 µM (inactive),–,> 100 µM (inactive),> 100 µM (inactive),> 100 µM (inactive),–,> 100 µM (inactive),> 100 µM (inactive),> 100 µM (inactive)
NC(CCCNc1cccc(O)c1)C(=O)O (stereo not given),> 100 µM (inactive),> 100 µM (inactive),> 100 µM (inactive),> 100 µM (inactive),> 100 µM (inactive),> 100 µM (inactive),–,> 100 µM (inactive),> 100 µM (inactive),> 100 µM (inactive),> 100 µM (inactive),> 100 µM (inactive),> 100 µM (inactive),> 100 µM (inactive),> 100 µM (inactive),> 100 µM (inactive)
O=C1CCCN(c2ccccc2)N1,–,> 100 µM (inactive),> 100 µM (inactive),> 100 µM (inactive),> 100 µM (inactive),> 100 µM (inactive),> 100 µM (inactive),> 100 µM (inactive),–,> 100 µM (inactive),> 100 µM (inactive),> 100 µM (inactive),> 100 µM (inactive),> 100 µM (inactive),> 100 µM (inactive),> 100 µM (inactive)
CCN(CC)CCC1CC/C(=C\c2ccc(OC)cc2)C1=O (stereo not given),18 µM (inactive),> 100 µM (inactive),> 100 µM (inactive),30.3 µM (inactive),59.6 µM (inactive),> 100 µM (inactive),> 100 µM (inactive),> 100 µM (inactive),39.5 µM (inactive),> 100 µM (inactive),35.5 µM (inactive),74.8 µM (inactive),> 100 µM (inactive),42.3 µM (inactive),> 100 µM (inactive),60.7 µM (inactive)
Cc1ccc(/C=C/C(=O)CCN(C)C)cc1,16 µM (inactive),26.3 µM (inactive),54.5 µM (inactive),18.3 µM (inactive),23.2 µM (inactive),13 µM (inactive),4.62 µM (inactive),15.2 µM (inactive),19.5 µM (inactive),33 µM (inactive),21.5 µM (inactive),19.4 µM (inactive),16.9 µM (inactive),23.1 µM (inactive),16.3 µM (inactive),–
C[C@]1(CO)CCC[C@@]2(C)C1CC[C@H]1CC3C[C@]12CC[C@]3(C)O (stereo not given in full),36.4 µM (inactive),> 100 µM (inactive),39.8 µM (inactive),> 100 µM (inactive),2.77 µM (inactive),> 100 µM (inactive),> 100 µM (inactive),46.1 µM (inactive),> 100 µM (inactive),> 100 µM (inactive),> 100 µM (inactive),> 100 µM (inactive),> 100 µM (inactive),46.7 µM (inactive),42.1 µM (inactive),16.3 µM (inactive)
CN1N=C2NCCNC3=NN(C)/C(=N/CC/N=C/1S2)S3,> 100 µM (inactive),> 100 µM (inactive),> 100 µM (inactive),> 100 µM (inactive),> 100 µM (inactive),> 100 µM (inactive),> 100 µM (inactive),> 100 µM (inactive),> 100 µM (inactive),> 100 µM (inactive),> 100 µM (inactive),> 100 µM (inactive),> 100 µM (inactive),> 100 µM (inactive),> 100 µM (inactive),> 100 µM (inactive)
COc1cc2c[n+](C)c3c4cc(OC)c(OC)cc4c(OCCCCCCCCOc4cc5c6cc(OC)c(OC)cc6c[n+](C)c5c5cc(OC)c(OC)cc45)cc3c2cc1OC,–,17.4 µM (inactive),> 100 µM (inactive),80 µM (inactive),31.6 µM (inactive),20 µM (inactive),72.8 µM (inactive),> 100 µM (inactive),> 100 µM (inactive),> 100 µM (inactive),> 100 µM (inactive),> 100 µM (inactive),> 100 µM (inactive),> 100 µM (inactive),12.9 µM (inactive),> 100 µM (inactive)
COc1cc(C)c(O)c(C(=O)O)c1,> 100 µM (inactive),> 100 µM (inactive),> 100 µM (inactive),> 100 µM (inactive),> 100 µM (inactive),> 100 µM (inactive),> 100 µM (inactive),> 100 µM (inactive),–,> 100 µM (inactive),> 100 µM (inactive),> 100 µM (inactive),> 100 µM (inactive),> 100 µM (inactive),> 100 µM (inactive),> 100 µM (inactive)
CCOC(=O)Oc1c(OC)cc(C(=O)NC2CCc3cc(OC)c(OC)c(OC)c3-c3ccc(SC)c(=O)cc32)cc1OC (stereo not given),0.0439 µM (active),0.324 µM (active),0.601 µM (active),0.0853 µM (active),0.157 µM (active),< 0.007 µM (active),0.0378 µM (active),0.789 µM (active),0.0728 µM (active),0.145 µM (active),0.138 µM (active),20.7 µM (inactive),0.0542 µM (active),–,0.0346 µM (active),< 0.007 µM (active)
COC(=O)C(C#N)=C1c2ccccc2Oc2ccccc21,92 µM (inactive),41.6 µM (inactive),> 100 µM (inactive),91.2 µM (inactive),35.4 µM (inactive),> 100 µM (inactive),> 100 µM (inactive),43.8 µM (inactive),30.5 µM (inactive),46.5 µM (inactive),53.8 µM (inactive),56.6 µM (inactive),38.9 µM (inactive),38.5 µM (inactive),–,24.9 µM (inactive)
O=C1c2ccccc2C2CCC1c1ccccc12 (stereo not given),19.2 µM (inactive),65 µM (inactive),48 µM (inactive),32.8 µM (inactive),18 µM (inactive),27.4 µM (inactive),31.6 µM (inactive),30.1 µM (inactive),20.3 µM (inactive),33.4 µM (inactive),36.5 µM (inactive),32.9 µM (inactive),43.8 µM (inactive),24.4 µM (inactive),39.5 µM (inactive),25 µM (inactive)
CC1(C)C(c2ccccc2)=NN(O)c2ccccc21,> 100 µM (inactive),> 100 µM (inactive),> 100 µM (inactive),> 100 µM (inactive),> 100 µM (inactive),> 100 µM (inactive),> 100 µM (inactive),> 100 µM (inactive),–,> 100 µM (inactive),> 100 µM (inactive),> 100 µM (inactive),–,> 100 µM (inactive),> 100 µM (inactive),> 100 µM (inactive)
